Assay results as given in patent US20080219936A1, “Skin depigmenting compositions comprising adapalene, at least one depigmenting agent and at least one anti-inflammatory agent” (GALDERMA RESEARCH AND DEVELOPMENT, priority 2005, published 2008).

Legend:
tail of a mouse = assay: Inhibition of the induction of pigmentation by UV-B radiation in irradiated and treated mice; assay type: in vivo; conditions: lower dose (0.01%)
Excerpt: Retinoic acid (tretinoin) is known to itself have a skin depigmenting activity (Guevara I. A. and Pandya A. G., Int. J. Dermatol., 40, 210-215 (2001)). […] Tretinoin is therefore a depigmenting agent in and of itself.

[1] = tested on: natural pigmentation of the tail of an SKH:HR2 mouse; assay: Depigmenting activity on natural pigmentation, tail of non-irradiated SKH:HR2 mouse, 8 weeks; assay type: in vivo; conditions: topical in acetone 5 days a week for 8 weeks, 3% hydroquinone, 0.1% adapalene, alone or in combination
Method: The evaluation of the depigmenting and/or anti-pigmenting activity of 3% hydroquinone and of 0.1% adapalene, alone or in combination for 8 weeks, is carried out on the tail of an SKH:HR2 mouse irradiated with ultraviolet B radiation, or not irradiated.
The treatment is carried out 5 days a week for 8 weeks. 20 μl of test product diluted in acetone are applied to the tail with a gap from applications: the hydroquinone is applied in the morning and the adapalene 4 h later.
−1: slight depigmentation
−2: moderate depigmentation
−3: marked depigmentation
−4: complete depigmentation

[2] = tested on: UV-induced pigmentation of the tail of an SKH:HR2 mouse; conditions: UV-B 90 mJ/cm^2 3 times a week; topical in acetone 5 days a week for 8 weeks; 3% hydroquinone, 0.1% adapalene
Method: The tail of the SKH:HR2 mouse is naturally pigmented and this pigmentation increases under the effect of repeated UV-B irradiation. The depigmenting activity is measured on the natural pigmentation after application of the test product to the tail of non-irradiated animals. The anti-pigmenting activity is measured by the inhibition of the induction of the UV-induced pigmentation: the test product is applied to the tail of UV-B-irradiated animals.
The treatment is carried out 5 days a week for 8 weeks. […] On the days of irradiation, the treatment is applied after irradiation.
The animals are irradiated 3 times a week for 8 weeks (Monday, Wednesday, Friday) at the dose of 90 mJ/cm^2 of UV-B.
The pigmentation is evaluated once a week before irradiation, by means of a score on a scale of 0 to 4. The scores are divided as follows: Depigmentation scale: scores −1 to −4.
Pigmentation scale: scores 1 to 4

Row | Structure (SMILES) | inhibition of the induction of pigmentation by UV-B radiation (tail of a mouse) | depigmenting activity (natural pigmentation score) [1] | depigmenting activity (natural pigmentation score) ([1]; listed as Adapalene) | anti-pigmenting activity (inhibition of pigmentation induced by UV-B irradiation) [2]
1 | CC1=C(/C=C/C(C)=C/C=C/C(C)=C/C(=O)O)C(C)(C)CCC1 [tretinoin, Retinoic acid] | no effect | – | – | –
2 | COc1ccc(-c2ccc3cc(C(=O)O)ccc3c2)cc1C12CC3CC(CC(C3)C1)C2 [adapalene, 6-[3-(1-adamantyl)-4-methoxyphenyl]-2-naphthanoic acid] | – | no depigmenting activity | does not modify the natural pigmentation | –
3 | Oc1ccc(O)cc1 [hydroquinone] | – | induces a depigmentation | – | shows an anti-pigmenting effect at the 6th and at the 7th week (D50), which becomes less marked at the end of the study
